According to patent US10264787B1, “Natural mosquito larvicide” (BIOVECBLOK, s.r.l., priority 2017, dated 2019):

System: Larvae and pupae of Anopheles gambiae, An. stephensi, Aedes albopictus and Ae. aegypti
Conditions: after 24 hours post application; 0.03 g tyrosine in 200 ml breeding water; first to fourth-instar larvae
Experimental: The pre-adult developmental stages were grown under these conditions: 28° C., 80% relative humidity and a photoperiod of 12 h light followed by 12 h dark.
Mosquito larvicidal/pupicidal tests were carried out based on the WHO standardized procedures and guidelines for larvicidal assay.
For each mosquito species, 24 hours before the assay to reduce the larval stress, we prepared 6 trays [15 cm (width), 15 cm (length) and 6.5 cm (deep)] one for each tested products, containing 200 ml of breeding water which includes 40 mosquito larvae (first, second, third, fourth-instars) and 10 pupae. Each assay comprised of 3 replicates.
Mortality was recorded every 30 minutes from beginning for the pre-adult developmental stages (larvae and pupe). […] The dead larvae and pupae were recorded, and the average percentage mortality was calculated.

In the case of `N[C@@H](Cc1ccc(O)cc1)C(=O)O` [tyrosine], the larval mortality was “about 60%”.
